How the values were obtained:
Assay type in all cases: in vivo
[1] = system: root knot nematodes (Meloidogyne incognita/acrita); test: Field trial: yield improvement against root knot nematode in cotton after seed treatment; settings: cotton (PhytoGen PHY 499 WRF) seed treatment; per 100 kg of seed: MBI600 1*10^11 CFU, cis-jasmone 0.2 g ai; harvest yield (pounds/acre) converted into % of untreated control; 4 replicates
Excerpt: (§1) To establish, whether a synergistic effect is present, the expected efficacy has to be calculated and compared to the observed efficacy of the mixture according to the invention.
(§2) Synergism can be described as an interaction where the combined effect of two or more compounds is greater than the sum of the individual effects of each of the compounds. The presence of a synergistic effect in terms of percent control, between two mixing partners (X and Y) can be calculated using the Colby equation (Colby, S. R., 1967, Calculating Synergistic and Antagonistic Responses in Herbicide Combinations, Weeds, 15, 20-22):
(§3) X=Observed efficacy (in % of Untreated Control) of compound 1
(§4) Y=Observed efficacy (in % of Untreated Control) of compound 2
(§5) E=Calculated (i.e. expected) efficacy (in % of Untreated Control)
(§6) When the observed efficacy (%) is greater than the calculated efficacy (E) according to Colby (%), then the combined effect is synergistic.
For evaluating control of root knot nematodes (Meloidogyne incognita/acrita) in cotton, cotton seeds (variety PhytoGen PHY 499 WRF) were treated with cis-jasmone, MBI600 (Bacillus amyloliquefaciens ssp. plantarum MBI600), or a mixture thereof.
(§7) Seeds were placed in a plastic cup and the compounds, or the mixture thereof, was dosed on the seeds with an application rate of 0.2 g of cis-jasmone per 100 kg of seeds, and 1*10^11 CFU of MBI600 per 100 kg of seeds. […]

[2] = system: root knot nematodes (Meloidogyne incognita/acrita); test: Field trial: yield improvement against root knot nematode in corn after seed treatment; settings: corn (NG6247MQKZ, NF5334MQKZ, NG4549MQKZ) seed treatment; per 100 kg of seeds: MBI600 1*10^11 CFU, cis-jasmone 0.2 g ai; harvest yield (bushels/acre) converted into % of untreated control; 4-6 replicates
Excerpt: as §1, §2, §3, §4, §5, §6
For evaluating control of root knot nematodes (Meloidogyne incognita/acrita) in corn, corn seeds (varieties NG6247MQKZ, NF5334MQKZ and NG4549MQKZ, respectively) were treated with cis-jasmone, MBI600 (Bacillus amyloliquefaciens ssp. plantarum MBI600), or a mixture thereof. […]

[3] = system: soybean cyst nematodes (Heterodera glycines); test: Field trial: yield improvement against soybean cyst nematode in soybean after seed treatment; settings: soybean (Dyna-Gro 39RY43) seed treatment; per 100 kg of seed: MBI600 1*10^11 CFU, cis-jasmone 0.2 g ai; harvest yield (bushels/acre) converted into % of untreated control; 4 replicates
Excerpt: as §1, §2, §3, §4, §5, §6
For evaluating control of soybean cyst nematodes (Heterodera glycines) in soybean, soybean seeds (variety Dyna-Gro 39RY43) were treated with cis-jasmone, MB1600 (Bacillus amyloliquefaciens ssp. plantarum MB1600), or a mixture thereof.
as §7

CC/C=C\CC1=C(C)CCC1=O [Cis-jasmone]
Observed efficacy (%) [1]: 47.2% | Observed efficacy (%) [2]: 9.2% | Observed efficacy (%) [3]: 9%

Source: patent US11076600B2, “Mixtures of cis-jasmone and bacillus amyloliquefaciens” (BASF SE, priority 2015, dated 2021)
